{
  "source": "patent US4514404A",
  "about": "“Process for obtaining complex of 3-methoxy-N-methylmorphinan with 7-theophyllineacetic acid (1:2)” (Prodes, S.A., priority 1982, dated 1985)",
  "key": {"[1]": {"system": "Wistar rats", "test": "subacute toxicity, repeated oral administration over 1 month", "assay_type": "in vivo, rat (Wistar)", "settings": "20, 60 and 120 mg/kg/day oral, both sexes", "protocol": "The subacute toxicity of theophane has been studied after repeated oral administrations over a period of 1 month in Wistar rats of both sexes. The theophane dosage used was 20 mg/kg/day, 60 mg/kg/day and 120 mg/kg/day. One lot of control animals received only excipient."}, "[2]": {"system": "mouse", "test": "acute toxicity in the mouse (Litchfield and Wilcoxon)", "assay_type": "in vivo", "source_text": "(§1) The acute toxicity of theophane has been studied orally and i.p. in the mouse and in the rat. The LD50 and the limits of reliance have been determined by the technique of Litchfield and Wilcoxon. Table III summarizes the values of the obtained LD50, as well as of LD0."}, "[3]": {"system": "auxotrophic S.typhimurium strains", "test": "mutagenic effect (Ames)", "assay_type": "cell-based", "settings": "six dosages in DMSO, presence and absence of metabolic activation", "source_text": "The possible mutagenic effect of theophane has been evaluated according to the text described by Ames, B. N. and cols (1975) using auxotrophic S.typhimurium strains for the histidine. The product has been studied at six different dosages, dissolved in DMSO, and in the presence and absence of a system of metabolic activation and in front of positive controls."}, "[4]": {"system": "rat", "test": "acute toxicity in the rat (Litchfield and Wilcoxon)", "assay_type": "in vivo", "source_text": "as §1"}, "[5]": {"system": "cardiovascular system", "test": "cardiovascular activity (technique of Smith, 1961)", "assay_type": "in vivo, guinea pig (male)", "settings": "0.5 to 10 mg/kg", "source_text": "The cardiovascular activity (technique of Smith, 1961) and the neuropharmacological activity (Irwin test) of the theophane product have been studied respectively in guinea pigs and rats (males)."}, "[6]": {"system": "Sprague-Dawley rats and fetuses of the first generation", "test": "fetal and teratogenous toxicity, oral during organogenesis", "assay_type": "in vivo, rat (Sprague-Dawley)", "settings": "20, 65 and 130 mg/kg/day oral"}, "[7]": {"system": "cough", "test": "antitussive activity: cough induced by sulfuric acid atmosphere (Chen et al. 1960), oral", "assay_type": "in vivo, guinea pig (male)", "settings": "for inhibition of the cough (individual animal) / number of coughs after administration (individual animal) / inhibition of the cough, average value: one hour after administration; for inhibition of the cough (individual animal) / number of coughs after administration (individual animal): individual animals", "protocol": "This activity has been compared with the activity of codeine and dextromethorphan by the experimental mode of Chen, J.Y.P. and col. (1960), consisting in exciting guinea pigs subjected to an atmosphere of sulfuric acid to cough.\nThere are used guinea pig males having a weight of 300-400 grs which are treated in respective lots, with codeine (40 mg/kg.; n=6), dextromethorphan (40 mg/kg.; n=6), theophane (20 mg/kg.; n=5) and theophane (40 mg/kg.; n=6), wherein \"n\" signifies the number of animals tested in the respective lots and the other data in the parentheses refers to the dosage amount, e.g. 40 mg/kg. The numbers of occurrences of coughing of each animal before and one hour after the oral administration of the drug are measured.\nIn Table I are detailed the results obtained by the experiment, before and after the administration of the drug as well as the percentage of inhibition of the cough."}, "[8]": {"system": "tracheal chain of guinea pigs", "test": "bronchodilatory activity in vitro, tracheal chain of guinea pigs (Castillo and de Beer), histamine as bronchoconstrictor", "set-up": "species or system guinea pig (male)", "settings": "for time elapsed until obtaining an activity of 50%: 5×10^-4 molar", "source_text": "The bronchodilatory activity \"in vitro\" of the compound of the present invention has been studied, using the method of tracheal chain of guinea pigs, described by J. C. Castillo and E. J. J. de Beer in Pharmacol.Expt. Therap., 90, 104. The trachea of male guinea pigs having a weight of 250-350 grs were extracted; then the rings are sectioned, always endeavoring that the trachea is bathed by the corresponding perfusion liquid and under oxygenation conditions for joining posteriorly the tracheal rings by means of a silk yarn forming the chain giving response to the drugs to be administered. The chain is placed in the bath of organs fixed to the registering arm of a chymograph. The bath is to be maintained at the constant temperature of 37.5° C. and using, as the liquid, the Krebs-Hanselett solution.\nAs a bronchoconstrictor drug, there is used histamine at a concentration of 1×10^-5 molar.\nThe bronchodilatory activity of theophane and theophylline have been compared, for various dosages, and the results obtained are presented in Table II."}, "[9]": {"settings": "40 mg/kg oral, n=6, codeine p < 0.001, dextromethorphan and theophane p < 0.005"}},
  "note": "Values joined by “and” are separate entries in the source; they are usually repeats but may differ in a detail not shown here. Equal entries are not always repeated. “Also recorded” adds a separate entry of the source.",
  "data": [
    {"smiles": "COc1ccc2c(c1)[C@@]13CCCC[C@H]1[C@@H](C2)N(C)CC3.Cn1c(=O)c2c(ncn2CC(=O)O)n(C)c1=O.Cn1c(=O)c2c(ncn2CC(=O)O)n(C)c1=O", "note": "[Theophane, complex of 3-methoxy-N-methylmorphinan with 7-theophyllineacetic acid (1:2)]", "values": [
      {"measurement": "subacute toxicity (mortality, weight, diet consumption, hematic, biochemical, urinary parameters, histopathology)", "setting": "[1]", "result": "null toxicity"},
      {"measurement": "LD0", "setting": "[2]; i.p.", "result": 102.3, "unit": "mg/kg"},
      {"measurement": "LD0", "setting": "[2]; oral", "result": 182.2, "unit": "mg/kg"},
      {"measurement": "mutagenic activity", "setting": "[3]", "result": "does not have any mutagenic activity"},
      {"measurement": "reversion increase", "setting": "[3]", "result": "No reversion increase could be observed"},
      {"measurement": "LD0", "setting": "[4]; i.p.", "result": 156.4, "unit": "mg/kg"},
      {"measurement": "LD0", "setting": "[4]; oral", "result": 204.4, "unit": "mg/kg"},
      {"measurement": "effects on the cardiovascular system", "setting": "[5]", "result": "do not produce effects on the cardiovascular system"},
      {"measurement": "teratogenous effects", "setting": "[6]", "result": "does not induce teratogenous effects"},
      {"measurement": "toxic effects to gestating females and their offspring", "setting": "[6]", "result": "does not produce toxic effects to the gestating females and their offspring"},
      {"measurement": "inhibition of the cough (individual animal)", "setting": "[7]; 20 mg/kg oral", "result": "33.3% and 28.57% and 66.6% and 60.0%"},
      {"measurement": "number of coughs after administration (individual animal)", "setting": "[7]; 20 mg/kg oral", "result": "4 and 10 and 1 and 2"},
      {"measurement": "inhibition of the cough, average value", "setting": "[7]; 20 mg/kg oral, n=5, p < 0.005", "result": "44.35 ± 17.5", "unit": "%"},
      {"measurement": "inhibition of the cough (individual animal)", "setting": "[7]; 40 mg/kg oral", "result": "60.0% and 72.2% and 30.7% and 100.0%"},
      {"measurement": "number of coughs after administration (individual animal)", "setting": "[7]; 40 mg/kg oral", "result": "2 and 5 and 9 and 0 and 4"},
      {"measurement": "inhibition of the cough, average value", "setting": "[7]; [9]", "result": "70.5 ± 26.6", "unit": "%"},
      {"measurement": "antitussive activity (in words)", "setting": "[7]; oral, 20 and 40 mg/kg, guinea pigs", "result": "potent antitussive activity; also recorded: antitussive activity which is significant with regard to its proper control"},
      {"measurement": "antitussive activity based on the 3-methoxy-N-methylmorphinan content, compared with dextromethorphan", "setting": "[7]; referring to the weight index, 40 mg/kg", "result": "greater antitussive activity"},
      {"measurement": "bronchodilatory activity in vitro compared with theophylline (in words)", "setting": "[8]", "result": "bronchodilatory activity \"in vitro\" at lower concentrations than theophylline"},
      {"measurement": "bronchodilatory activity", "setting": "[8]; 1 × 10^-3 molar, 1000 µM", "result": 100, "unit": "%"},
      {"measurement": "bronchodilatory activity", "setting": "[8]; 1 × 10^-4 molar, 100 µM", "result": 54.6, "unit": "%"},
      {"measurement": "bronchodilatory activity", "setting": "[8]; 1 × 10^-5 molar, 10 µM", "result": 0, "unit": "%"},
      {"measurement": "bronchodilatory activity", "setting": "[8]; 2 × 10^-4 molar, 200 µM", "result": 37.5, "unit": "%"},
      {"measurement": "time elapsed until obtaining an activity of 50%", "setting": "[8]", "result": 280, "unit": "s"},
      {"measurement": "bronchodilatory activity", "setting": "[8]; 5 × 10^-4 molar, 500 µM", "result": 85.3, "unit": "%"},
      {"measurement": "bronchodilatory activity", "setting": "[8]; 5 × 10^-5 molar, 50 µM", "result": 8.3, "unit": "%"}
    ]},
    {"smiles": "COc1ccc2c3c1O[C@H]1[C@@H](O)C=C[C@H]4[C@@H](C2)N(C)CC[C@@]341", "note": "[Codeine, reference compound]", "values": [
      {"measurement": "inhibition of the cough (individual animal)", "setting": "[7]; 40 mg/kg oral", "result": "71.4% and 100.0% and 81.8%"},
      {"measurement": "number of coughs after administration (individual animal)", "setting": "[7]; 40 mg/kg oral", "result": "2 and 0"},
      {"measurement": "inhibition of the cough, average value", "setting": "[7]; [9]", "result": "92.2 ± 12.5", "unit": "%"}
    ]},
    {"smiles": "Cn1c(=O)c2[nH]cnc2n(C)c1=O", "note": "[Theophylline]", "values": [
      {"measurement": "time elapsed until obtaining an activity of 50%", "setting": "[8]", "result": 180, "unit": "s"},
      {"measurement": "inhibition at 1000 µM", "setting": "[8]; Cavia porcellus, 1 × 10^-3 molar", "result": 100, "unit": "%"},
      {"measurement": "inhibition at 100 µM", "setting": "[8]; Cavia porcellus, 1 × 10^-4 molar", "result": 10.4, "unit": "%"},
      {"measurement": "inhibition at 10 µM", "setting": "[8]; Cavia porcellus, 1 × 10^-5 molar", "result": 0, "unit": "%"},
      {"measurement": "inhibition at 200 µM", "setting": "[8]; Cavia porcellus, 2 × 10^-4 molar", "result": 30, "unit": "%"},
      {"measurement": "inhibition at 20 µM", "setting": "[8]; Cavia porcellus, 2 × 10^-5 molar", "result": 6.25, "unit": "%"},
      {"measurement": "inhibition at 500 µM", "setting": "[8]; Cavia porcellus, 5 × 10^-4 molar", "result": 59.1, "unit": "%"}
    ]},
    {"smiles": "COc1ccc2c(c1)[C@]13CCCC[C@@H]1[C@H](C2)N(C)CC3", "note": "[Dextromethorphan, reference compound]", "values": [
      {"measurement": "inhibition of the cough (individual animal)", "setting": "[7]; 40 mg/kg oral", "result": "33.3% and 60.0% and 100.0% and 75.0% and 50.0%"},
      {"measurement": "number of coughs after administration (individual animal)", "setting": "[7]; 40 mg/kg oral", "result": "4 and 6 and 0 and 1"},
      {"measurement": "inhibition of the cough, average value", "setting": "[7]; [9]", "result": "69.7 ± 27.0", "unit": "%"}
    ]}
  ]
}
